The values below come from patent US20260159512A1, “BCAT2 INHIBITORS” (AGIOS PHARMACEUTICALS, INC., priority 2021, published 2026).

Common to all, as to details: average where tested multiple times
The target in experiment [1] is T1, BCAT2 (Homo sapiens, UniProt O15382).
T1 sequence (O15382 28-392): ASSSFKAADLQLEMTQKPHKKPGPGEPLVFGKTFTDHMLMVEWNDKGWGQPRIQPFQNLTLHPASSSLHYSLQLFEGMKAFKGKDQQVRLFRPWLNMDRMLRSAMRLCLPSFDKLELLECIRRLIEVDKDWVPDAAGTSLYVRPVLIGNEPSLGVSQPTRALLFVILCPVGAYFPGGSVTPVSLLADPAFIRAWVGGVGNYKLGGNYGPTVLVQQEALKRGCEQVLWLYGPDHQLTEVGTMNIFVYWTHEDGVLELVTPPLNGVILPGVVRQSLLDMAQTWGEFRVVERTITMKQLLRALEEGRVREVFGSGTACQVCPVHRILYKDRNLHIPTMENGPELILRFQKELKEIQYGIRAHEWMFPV
The experiment is described as follows: BCAT2 in vitro enzyme inhibition assay (resazurin/diaphorase-coupled fluorescence). It is filed as biochemical. In short, it runs like this: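 Coupled fluorescence readout: glutamate formed from L-leucine/α-ketoglutarate transamination drives GDH/NAD/diaphorase reduction of resazurin (Ex 540/Em 590). Human BCAT2 was first exposed 1 h at room temperature to compound, top final 100 μM in 3-fold, 10-point series; substrate reaction ran 1 h before SDS quench, in technical duplicate with DMSO max and enzyme-free min controls.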
A general note: Alamar Blue is a resazurin reagent that responds to reducing activity.

Experiment [2] deals with T2, hBCAT1 (Homo sapiens, UniProt P54687).
T2 sequence (P54687 1-386): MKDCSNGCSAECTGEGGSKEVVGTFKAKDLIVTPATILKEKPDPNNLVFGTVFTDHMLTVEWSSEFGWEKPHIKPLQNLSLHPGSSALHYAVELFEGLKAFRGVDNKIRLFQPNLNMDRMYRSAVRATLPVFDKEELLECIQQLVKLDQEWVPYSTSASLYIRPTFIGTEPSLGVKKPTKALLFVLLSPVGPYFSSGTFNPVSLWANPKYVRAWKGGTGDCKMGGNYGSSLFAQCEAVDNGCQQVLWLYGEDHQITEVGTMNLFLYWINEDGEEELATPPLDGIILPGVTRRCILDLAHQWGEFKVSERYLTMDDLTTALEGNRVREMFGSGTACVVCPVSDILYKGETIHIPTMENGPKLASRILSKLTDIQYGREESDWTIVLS
Description: BCAT1 in vitro enzyme inhibition assay (resazurin/diaphorase-coupled fluorescence). It is filed as biochemical. In outline:
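Ten-point, 3-fold compound series (top final 100 μM, delivered 1:50 from 50× DMSO stocks) tested against hBCAT1. Inhibition detected via diaphorase-coupled resazurin fluorescence, duplicate wells, with values from repeated runs averaged.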

The target in experiment [3] is T1, BCAT2. Description: BCAT2 in vitro cell inhibition using engineered A549 cells (KMV cell assay, 13C6-KMV by LC-MS/MS). In kind it is cell-based. On the set-up: The result was an engineered A549 cell line that expressed endogenous BCAT2; endogenous in cells; host or cells: A549 cells with MUT and BCAT1 knocked out by CRISPR/CAS9.

As to `Cc1nc(-c2cc3c(cn2)nc(CC(C)C)n3[C@@H]2CCC[C@H](NC(=O)c3ncc(Cl)s3)C2)n[nH]1` [Example 165, 5-chloro-N-((1S,3R)-3-(2-isobutyl-6-(5-methyl-1H-1,2,4-triazol-3-yl)-1H-imidazo[4,5-c]pyridin-1-yl)cyclohexyl)thiazole-2-carboxamide], the concentration for half-maximal inhibition (IC50) in experiment [1] is no more than 100 nM; in experiment [2], less than 500 nM; in experiment [3] it was no more than 100 nM.

Regarding `CC(C)[C@H](N)c1nc2cnc(-c3ccccn3)cc2n1[C@@H]1CCC[C@H](NC(=O)c2ncc(Cl)s2)C1` [Example 166, N-((1S,3R)-3-(2-((S)-1-amino-2-methylpropyl)-6-(pyridin-2-yl)-1H-imidazo[4,5-c]pyridin-1-yl)cyclohexyl)-5-chlorothiazole-2-carboxamide], the IC50 is no more than 100 nM in experiment [1], less than 500 nM in experiment [2] and 100 to 500 nM in experiment [3].

As to `O=C(N[C@H]1CCC[C@@H](n2c(-c3ccccc3F)nc3cnc(-c4cc(F)ccn4)cc32)C1)c1ncc(Cl)s1` [Example 168, 5-chloro-N-((1S,3R)-3-(2-(2-fluorophenyl)-6-(4-fluoropyridin-2-yl)-1H-imidazo[4,5-c]pyridin-1-yl)cyclohexyl)thiazole-2-carboxamide], the figures for the IC50 in experiment [1], in experiment [2] and in experiment [3] were no more than 100 nM, less than 500 nM and no more than 100 nM, respectively.

For `O=C(N[C@H]1CCC[C@@H](n2c(-c3ccccc3F)nc3cnc(-c4ncccc4F)cc32)C1)c1ncc(Cl)s1` [Example 169, 5-chloro-N-((1S,3R)-3-(2-(2-fluorophenyl)-6-(3-fluoropyridin-2-yl)-1H-imidazo[4,5-c]pyridin-1-yl)cyclohexyl)thiazole-2-carboxamide], the IC50 was no more than 100 nM in experiment [1], less than 500 nM in experiment [2] and no more than 100 nM in experiment [3].

In the case of `O=C(N[C@H]1CCC[C@@H](n2c(-c3ccccc3F)nc3cnc(-c4ccc(F)cn4)cc32)C1)c1ncc(Cl)s1` [Example 170, 5-chloro-N-((1S,3R)-3-(2-(2-fluorophenyl)-6-(5-fluoropyridin-2-yl)-1H-imidazo[4,5-c]pyridin-1-yl)cyclohexyl)thiazole-2-carboxamide], the concentration for half-maximal inhibition (IC50) in experiment [1] is no more than 100 nM; in experiment [2] it was less than 500 nM; in experiment [3], no more than 100 nM.

Regarding `CC(C)[C@H](O)c1nc2cnc(-c3ncccn3)cc2n1[C@@H]1CCC[C@H](NC(=O)c2ncc(Cl)s2)C1` [Example 171, 5-chloro-N-((1S,3R)-3-(2-((S)-1-hydroxy-2-methylpropyl)-6-(pyrimidin-2-yl)-1H-imidazo[4,5-c]pyridin-1-yl)cyclohexyl)thiazole-2-carboxamide], the half-inhibitory concentration (IC50) in experiment [1] was no more than 100 nM; in experiment [2], less than 500 nM; in experiment [3], greater than 1000 nM.

In the case of `CC(C)[C@@H](O)c1nc2cnc(-c3ncccn3)cc2n1[C@@H]1CCC[C@H](NC(=O)c2ncc(Cl)s2)C1` [Example 172, 5-chloro-N-((1S,3R)-3-(2-((R)-1-hydroxy-2-methylpropyl)-6-(pyrimidin-2-yl)-1H-imidazo[4,5-c]pyridin-1-yl)cyclohexyl)thiazole-2-carboxamide], the half-inhibitory concentration (IC50) in experiment [1] is no more than 100 nM; in experiment [2] it was less than 500 nM; in experiment [3], 500 to 1000 nM.

Regarding `C=Cc1csc(C(=O)N[C@H]2CCC[C@@H](n3c(-c4ccccc4F)nc4cnc(-c5nc[nH]n5)cc43)C2)n1` [Example 173, N-((1S,3R)-3-(2-(2-fluorophenyl)-6-(1H-1,2,4-triazol-3-yl)-1H-imidazo[4,5-c]pyridin-1-yl)cyclohexyl)-4-vinylthiazole-2-carboxamide], the IC50 is no more than 100 nM in experiment [1], 1000 to 5000 nM in experiment [2] and 500 to 1000 nM in experiment [3].

Take `O=C(N[C@H]1CCC[C@@H](n2c(-c3ncccc3F)nc3cnc(-c4nc[nH]n4)cc32)C1)c1ncc(Cl)s1` [Example 175, 5-chloro-N-((1S,3R)-3-(2-(3-fluoropyridin-2-yl)-6-(1H-1,2,4-triazol-3-yl)-1H-imidazo[4,5-c]pyridin-1-yl)cyclohexyl)thiazole-2-carboxamide]: the results for the half-maximal inhibitory concentration (IC50) in experiment [1], in experiment [2] and in experiment [3] were no more than 100 nM, less than 500 nM and no more than 100 nM, respectively.

For the compound `O=C(N[C@H]1CCC[C@@H](n2c(-c3ccccc3F)nc3cnc(-c4ccncc4)cc32)C1)c1ncc(Cl)s1` [Example 178, 5-chloro-N-((1S,3R)-3-(2-(2-fluorophenyl)-6-(pyridin-4-yl)-1H-imidazo[4,5-c]pyridin-1-yl)cyclohexyl)thiazole-2-carboxamide], the results for the IC50 in experiment [1], in experiment [2] and in experiment [3] were no more than 100 nM, 500 to 1000 nM and 100 to 500 nM, respectively.

As to `COc1cccc(-c2cc3c(cn2)nc(-c2ccccc2F)n3[C@@H]2CCC[C@H](NC(=O)c3ncc(Cl)s3)C2)n1` [Example 179, 5-chloro-N-((1S,3R)-3-(2-(2-fluorophenyl)-6-(6-methoxypyridin-2-yl)-1H-imidazo[4,5-c]pyridin-1-yl)cyclohexyl)thiazole-2-carboxamide], the IC50 in experiment [1] is no more than 100 nM; in experiment [2], less than 500 nM; in experiment [3] it was no more than 100 nM.

Take `O=C(N[C@H]1CCC[C@@H](n2c(-c3ccccc3F)nc3cnc(-c4cccnc4)cc32)C1)c1ncc(Cl)s1` [Example 180, 5-chloro-N-((1S,3R)-3-(2-(2-fluorophenyl)-6-(pyridin-3-yl)-1H-imidazo[4,5-c]pyridin-1-yl)cyclohexyl)thiazole-2-carboxamide]: the IC50 was no more than 100 nM in experiment [1], 1000 to 5000 nM in experiment [2] and 100 to 500 nM in experiment [3].

For the compound `Cn1ccc(-c2cc3c(cn2)nc(-c2ccccc2F)n3[C@@H]2CCC[C@H](NC(=O)c3ncc(Cl)s3)C2)n1` [Example 181, 5-chloro-N-((1S,3R)-3-(2-(2-fluorophenyl)-6-(1-methyl-1H-pyrazol-3-yl)-1H-imidazo[4,5-c]pyridin-1-yl)cyclohexyl)thiazole-2-carboxamide], the half-inhibitory concentration (IC50) was no more than 100 nM in experiment [1], less than 500 nM in experiment [2] and no more than 100 nM in experiment [3].

As for `O=C(N[C@H]1CCC[C@@H](n2c(-c3ccccn3)nc3cnc(-c4nc[nH]n4)cc32)C1)c1ncc(Cl)s1` [Example 184, 5-chloro-N-((1S,3R)-3-(2-(pyridin-2-yl)-6-(1H-1,2,4-triazol-3-yl)-1H-imidazo[4,5-c]pyridin-1-yl)cyclohexyl)thiazole-2-carboxamide], the results for the IC50 in experiment [1], in experiment [2] and in experiment [3] were no more than 100 nM, less than 500 nM and no more than 100 nM, respectively.

`O=C(N[C@H]1CCC[C@@H](n2c(-c3ccccc3F)nc3cnc(-c4ncccn4)cc32)C1)c1ncc(Cl)s1` [Example 185, 5-chloro-N-((1S,3R)-3-(2-(2-fluorophenyl)-6-(pyrimidin-2-yl)-1H-imidazo[4,5-c]pyridin-1-yl)cyclohexyl)thiazole-2-carboxamide]: the IC50 was no more than 100 nM in experiment [1], less than 500 nM in experiment [2] and no more than 100 nM in experiment [3].

With `Cc1cn[nH]c1-c1cc2c(cn1)nc(-c1ccccc1F)n2[C@@H]1CCC[C@H](NC(=O)c2ncc(Cl)s2)C1` [Example 186, 5-chloro-N-((1S,3R)-3-(2-(2-fluorophenyl)-6-(4-methyl-1H-pyrazol-5-yl)-1H-imidazo[4,5-c]pyridin-1-yl)cyclohexyl)thiazole-2-carboxamide], the IC50 in experiment [1] is no more than 100 nM; in experiment [2], less than 500 nM; in experiment [3], no more than 100 nM.

As for `CC(C)C(=O)c1nc2cnc(-c3nc[nH]n3)cc2n1[C@@H]1CCC[C@H](NC(=O)c2ncc(Cl)s2)C1` [Example 187, 5-chloro-N-((1S,3R)-3-(2-isobutyryl-6-(1H-1,2,4-triazol-3-yl)-1H-imidazo[4,5-c]pyridin-1-yl)cyclohexyl)thiazole-2-carboxamide], the IC50 in experiment [1] fell in the range of 100 to 500 nM; in experiment [2], 1000 to 5000 nM; in experiment [3], 100 to 500 nM.

The term IC50 denotes the point on the concentration scale where inhibition reaches its midpoint.
